Assay [1] relates to U937 (human leukemic monocyte lymphoma) cell line. As to the kind of experiment: Cell viability assay (CELL-TITER-GLO), U937. Type of assay: cell-based. The note with it: U-937, U937 cells, 48 hour treatment, 1 nM to 1 μM. Here is the method:
(§1) Cell viability assays were run using standard protocols known to those of skill in art. Cells were plated in 96 well plates at the density of 3,000-10,000 cells per well. Twenty four hours later, cells were treated with increasing concentration of test compounds (1 nM to 1 μM). After another 48 hour, cell survival was measured using CELL-TITER-GLO® reagent (Promega) following the protocol provided by the manufacture. The IC50 value was determined as the concentration of test compound that kills 50% of the cell population.
(§2) Cell viability data generated according to the protocol described herein was generated for representative compounds in the A2058 (human melanoma) and U937 (human leukemic monocyte lymphoma) cell lines. The compound of Example 16 (“Compound J”) was used as a reference compound.

Assay [2] concerns A2058 (human melanoma) cell line. As to the kind of experiment: Cell viability assay (CELL-TITER-GLO), A2058. The note with it: A2058 cells, 48 hour treatment, 1 nM to 1 μM. In kind it is cell-based. Here is the method:
as §1, §2

Experimental findings from patent US8476256B2, “Diazonamide analogs” (Joyant Pharmaceuticals, Inc., priority 2008, dated 2013) are described below.

Take `CC(C)[C@H](N)C(=O)N[C@H]1Cc2ccc3c(c2)C24C5=C(N=C(O5)[C@H](C(C)C)NC1=O)c1ncc(o1)-c1c[nH]c5cccc(c15)-c1cccc2c1N[C@H]4O3` (some centres unmarked) [Example 33]: the figures for the IC50 in assay [1] and in assay [2] were 0.572 µM and 1.44 µM, respectively.

Take `CN[C@H](C(=O)N[C@H]1Cc2ccc3c(c2)C24C5=C(N=C(O5)[C@H](C(C)C)NC1=O)c1ncc(o1)-c1c[nH]c5cccc(c15)-c1cccc2c1N[C@H]4O3)C(C)C` (some centres unmarked) [Example 34]: the 50% inhibitory concentration (IC50) was 0.393 µM in assay [1] and 0.221 µM in assay [2].

On to `CC(=O)N[C@H](C(=O)N[C@H]1Cc2ccc3c(c2)C24C5=C(N=C(O5)[C@H](C(C)C)NC1=O)c1ncc(o1)-c1c[nH]c5cccc(c15)-c1cccc2c1N[C@H]4O3)C(C)C` (some centres unmarked) [Example 35], for which the results for the IC50 in assay [1] and in assay [2] were 0.183 µM and 0.232 µM, respectively.

As to `CC(C)C1NC(=O)[C@@H](NC(=O)[C@@H]2CCCN2)Cc2ccc3c(c2)C24C5=C(N=C1O5)c1ncc(o1)-c1c[nH]c5cccc(c15)-c1cccc2c1N[C@H]4O3` (some centres unmarked) [Example 36], the IC50 in assay [1] and in assay [2] was more than 1 µM each time.

For the compound `CC(C)C1NC(=O)[C@@H](NC(=O)[C@@H]2C[C@@H](O)CN2)Cc2ccc3c(c2)C24C5=C(N=C1O5)c1ncc(o1)-c1c[nH]c5cccc(c15)-c1cccc2c1N[C@H]4O3` (some centres unmarked) [Example 37], the IC50 in assay [1] and in assay [2] was more than 1 µM in each case.

As to `CC(C)CC(=O)N[C@H]1Cc2ccc3c(c2)[C@]24C5=C(N=C(O5)[C@H](C(C)C)NC1=O)c1ncc(o1)-c1c[nH]c5cccc(c15)-c1cccc2c1NC4O3` (some centres unmarked) [Example 38], the half-inhibitory concentration (IC50) in assay [1] was 0.216 µM; in assay [2] it was 0.417 µM.

With `CC[C@H](C)C(=O)NC1Cc2ccc3c(c2)[C@]24C5=C(N=C(O5)[C@H](C(C)C)NC1=O)c1ncc(o1)-c1c[nH]c5cccc(c15)-c1cccc2c1NC4O3` (some centres unmarked) [Example 39], the IC50 amounted to 0.555 µM in assay [1] and 0.707 µM in assay [2].

Turning to `CCC(C)(C)C(=O)NC1Cc2ccc3c(c2)[C@]24C5=C(N=C(O5)[C@H](C(C)C)NC1=O)c1ncc(o1)-c1c[nH]c5cccc(c15)-c1cccc2c1NC4O3` (some centres unmarked) [Example 40], the half-maximal inhibitory concentration (IC50) in assay [1] was 0.164 µM; in assay [2], 0.233 µM.

Consider `CCCC(C)(C)C(=O)NC1Cc2ccc3c(c2)[C@]24C5=C(N=C(O5)[C@H](C(C)C)NC1=O)c1ncc(o1)-c1c[nH]c5cccc(c15)-c1cccc2c1NC4O3` (some centres unmarked) [Example 41], for which the IC50 in assay [1] was 0.22 µM; in assay [2], 0.397 µM.

Consider `CC(C)=CC(=O)NC1Cc2ccc3c(c2)[C@]24C5=C(N=C(O5)[C@H](C(C)C)NC1=O)c1ncc(o1)-c1c[nH]c5cccc(c15)-c1cccc2c1NC4O3` (some centres unmarked) [Example 42], for which the IC50 in assay [1] turned out to be 0.221 µM; in assay [2] it was 0.409 µM.

Consider `CC/C=C/C(=O)NC1Cc2ccc3c(c2)[C@]24C5=C(N=C(O5)[C@H](C(C)C)NC1=O)c1ncc(o1)-c1c[nH]c5cccc(c15)-c1cccc2c1NC4O3` (some centres unmarked) [Example 43], for which the half-inhibitory concentration (IC50) was determined as 0.186 µM in assay [1] and 0.356 µM in assay [2].

Regarding `CC/C=C(\C)C(=O)NC1Cc2ccc3c(c2)[C@]24C5=C(N=C(O5)[C@H](C(C)C)NC1=O)c1ncc(o1)-c1c[nH]c5cccc(c15)-c1cccc2c1NC4O3` (some centres unmarked) [Example 44], the IC50 worked out at 0.399 µM in assay [1] and 0.587 µM in assay [2].

As for `CC(C)=CCC/C(C)=C/C(=O)NC1Cc2ccc3c(c2)[C@]24C5=C(N=C(O5)[C@H](C(C)C)NC1=O)c1ncc(o1)-c1c[nH]c5cccc(c15)-c1cccc2c1NC4O3` (some centres unmarked) [Example 45], the results for the IC50 in assay [1] and in assay [2] were 0.78 µM and 0.887 µM, respectively.

As to `CC(C)C(Br)C(=O)NC1Cc2ccc3c(c2)[C@]24C5=C(N=C(O5)[C@H](C(C)C)NC1=O)c1ncc(o1)-c1c[nH]c5cccc(c15)-c1cccc2c1NC4O3` (some centres unmarked) [Example 46], the half-maximal inhibitory concentration (IC50) worked out at 0.443 µM in assay [1] and 0.313 µM in assay [2].

`CCCC(Br)C(=O)NC1Cc2ccc3c(c2)[C@]24C5=C(N=C(O5)[C@H](C(C)C)NC1=O)c1ncc(o1)-c1c[nH]c5cccc(c15)-c1cccc2c1NC4O3` (some centres unmarked) [Example 47]: the half-inhibitory concentration (IC50) in assay [1] came to 0.323 µM; in assay [2] it was 0.546 µM.

On to `CC(C)[C@@H]1NC(=O)C(NC(=O)C2CC2)Cc2ccc3c(c2)[C@]24C5=C(N=C1O5)c1ncc(o1)-c1c[nH]c5cccc(c15)-c1cccc2c1NC4O3` (some centres unmarked) [Example 48], for which the IC50 was 0.22 µM in assay [1] and 0.457 µM in assay [2].

Consider `CC1CC1C(=O)NC1Cc2ccc3c(c2)[C@]24C5=C(N=C(O5)[C@H](C(C)C)NC1=O)c1ncc(o1)-c1c[nH]c5cccc(c15)-c1cccc2c1NC4O3` (some centres unmarked) [Example 49], for which the half-inhibitory concentration (IC50) is 0.245 µM in assay [1] and 0.443 µM in assay [2].

In the case of `CC(C)[C@@H]1NC(=O)C(NC(=O)C2CCCC2)Cc2ccc3c(c2)[C@]24C5=C(N=C1O5)c1ncc(o1)-c1c[nH]c5cccc(c15)-c1cccc2c1NC4O3` (some centres unmarked) [Example 50], the IC50 in assay [1] was 0.331 µM; in assay [2], 0.339 µM.

Consider `CC(C)[C@@H]1NC(=O)C(NC(=O)C2CCCCC2)Cc2ccc3c(c2)[C@]24C5=C(N=C1O5)c1ncc(o1)-c1c[nH]c5cccc(c15)-c1cccc2c1NC4O3` (some centres unmarked) [Example 51], for which the IC50 in assay [1] came out at 0.276 µM; in assay [2] it was 0.235 µM.

For the compound `CC(C)[C@@H]1NC(=O)C(NC(=O)C2(C)CCCCC2)Cc2ccc3c(c2)[C@]24C5=C(N=C1O5)c1ncc(o1)-c1c[nH]c5cccc(c15)-c1cccc2c1NC4O3` (some centres unmarked) [Example 52], the IC50 in assay [1] came to 0.491 µM; in assay [2], 0.386 µM.

For `CC(C)[C@@H]1NC(=O)C(NC(=O)[C@@H]2CCOC2)Cc2ccc3c(c2)[C@]24C5=C(N=C1O5)c1ncc(o1)-c1c[nH]c5cccc(c15)-c1cccc2c1NC4O3` (some centres unmarked) [Example 54], the half-inhibitory concentration (IC50) in assay [1] is 0.078 µM; in assay [2], 0.081 µM.

On to `CC(C)[C@@H]1NC(=O)C(NC(=O)c2ccc(Br)cc2)Cc2ccc3c(c2)[C@]24C5=C(N=C1O5)c1ncc(o1)-c1c[nH]c5cccc(c15)-c1cccc2c1NC4O3` (some centres unmarked) [Example 55], for which the results for the concentration for half-maximal inhibition (IC50) in assay [1] and in assay [2] were 0.406 µM and 0.613 µM, respectively.

Regarding `CC(C)[C@@H]1NC(=O)C(NC(=O)/C=C/C(=O)O)Cc2ccc3c(c2)[C@]24C5=C(N=C1O5)c1ncc(o1)-c1c[nH]c5cccc(c15)-c1cccc2c1NC4O3` (some centres unmarked) [Example 56], the results for the concentration for half-maximal inhibition (IC50) in assay [1] and in assay [2] were 0.756 µM and more than 1 µM, respectively.

Turning to `CO[C@@](C(=O)NC1Cc2ccc3c(c2)[C@]24C5=C(N=C(O5)[C@H](C(C)C)NC1=O)c1ncc(o1)-c1c[nH]c5cccc(c15)-c1cccc2c1NC4O3)(c1ccccc1)C(F)(F)F` (some centres unmarked) [Example 57], the IC50 in assay [1] worked out at 0.618 µM; in assay [2] it was 0.58 µM.

As to `CO[C@](C(=O)NC1Cc2ccc3c(c2)[C@]24C5=C(N=C(O5)[C@H](C(C)C)NC1=O)c1ncc(o1)-c1c[nH]c5cccc(c15)-c1cccc2c1NC4O3)(c1ccccc1)C(F)(F)F` (some centres unmarked) [Example 58], the values for the IC50 in assay [1] and in assay [2] were 0.821 µM and more than 1 µM, respectively.

`COc1cc(C(=O)NC2Cc3ccc4c(c3)C35C6=C(N=C(O6)[C@H](C(C)C)NC2=O)c2ncc(o2)-c2c[nH]c6cccc(c26)-c2cccc3c2N[C@H]5O4)cc(OC)c1OC` (some centres unmarked) [Example 59]: the IC50 in assay [1] was 0.619 µM; in assay [2], 0.798 µM.

With `CC(C)[C@@H]1NC(=O)C(NC(=O)C(C)(C)C)Cc2ccc3c(c2)[C@]24C5=C(N=C1O5)c1ncc(o1)-c1c[nH]c5cccc(c15)-c1cccc2c1NC4O3` (some centres unmarked) [Example 60], the IC50 was 0.255 µM in assay [1] and 0.538 µM in assay [2].

In the case of `CCCC(C)C(=O)NC1Cc2ccc3c(c2)[C@]24C5=C(N=C(O5)[C@H](C(C)C)NC1=O)c1ncc(o1)-c1c[nH]c5cccc(c15)-c1cccc2c1NC4O3` (some centres unmarked) [Example 61], the IC50 in assay [1] was determined as 0.55 µM; in assay [2], 0.636 µM.

For the compound `CCC(CC)C(=O)NC1Cc2ccc3c(c2)[C@]24C5=C(N=C(O5)[C@H](C(C)C)NC1=O)c1ncc(o1)-c1c[nH]c5cccc(c15)-c1cccc2c1NC4O3` (some centres unmarked) [Example 62], the half-inhibitory concentration (IC50) in assay [1] was determined as 0.247 µM; in assay [2], 0.556 µM.

As to `CC(C)[C@@H]1NC(=O)C(NC(=O)c2cccs2)Cc2ccc3c(c2)[C@]24C5=C(N=C1O5)c1ncc(o1)-c1c[nH]c5cccc(c15)-c1cccc2c1NC4O3` (some centres unmarked) [Example 63], the IC50 in assay [1] was 0.206 µM; in assay [2], 0.488 µM.

With `CC(C)[C@@H]1NC(=O)C(NC(=O)Cc2cccs2)Cc2ccc3c(c2)[C@]24C5=C(N=C1O5)c1ncc(o1)-c1c[nH]c5cccc(c15)-c1cccc2c1NC4O3` (some centres unmarked) [Example 64], the IC50 in assay [1] and in assay [2] was more than 1 µM each time.

Consider `CC(C)[C@@H]1NC(=O)C(NC=O)Cc2ccc3c(c2)C24C5=C(N=C1O5)c1ncc(o1)-c1c[nH]c5cccc(c15)-c1cccc2c1N[C@H]4O3` (some centres unmarked) [Example 66], for which the IC50 in assay [1] was 0.499 µM; in assay [2], 0.766 µM.

Take `CC(C)=CCC/C(C)=C/CNC1Cc2ccc3c(c2)C24C5=C(N=C(O5)[C@H](C(C)C)NC1=O)c1ncc(o1)-c1c[nH]c5cccc(c15)-c1cccc2c1N[C@H]4O3` (some centres unmarked) [Example 67]: the IC50 in assay [1] and in assay [2] was more than 1 µM each time.

In the case of `CC(C)OC(=O)NC1Cc2ccc3c(c2)C24C5=C(N=C(O5)[C@H](C(C)C)NC1=O)c1ncc(o1)-c1c[nH]c5cccc(c15)-c1cccc2c1N[C@H]4O3` (some centres unmarked) [Example 68], the 50% inhibitory concentration (IC50) in assay [1] came out at 0.214 µM; in assay [2] it was 0.451 µM.

As for `CC(C)COC(=O)NC1Cc2ccc3c(c2)[C@]24C5=C(N=C(O5)[C@H](C(C)C)NC1=O)c1ncc(o1)-c1c[nH]c5cccc(c15)-c1cccc2c1NC4O3` (some centres unmarked) [Example 69], the figures for the IC50 in assay [1] and in assay [2] were 0.272 µM and 0.541 µM, respectively.

With `C#CCOC(=O)NC1Cc2ccc3c(c2)[C@]24C5=C(N=C(O5)[C@H](C(C)C)NC1=O)c1ncc(o1)-c1c[nH]c5cccc(c15)-c1cccc2c1NC4O3` (some centres unmarked) [Example 70], the half-maximal inhibitory concentration (IC50) in assay [1] came out at 0.434 µM; in assay [2] it was 0.692 µM.

`C=CCOC(=O)NC1Cc2ccc3c(c2)[C@]24C5=C(N=C(O5)[C@H](C(C)C)NC1=O)c1ncc(o1)-c1c[nH]c5cccc(c15)-c1cccc2c1NC4O3` (some centres unmarked) [Example 71]: the figures for the IC50 in assay [1] and in assay [2] were 0.185 µM and 0.451 µM, respectively.

By IC50 is commonly meant the concentration that inhibits the measured activity by half. Read a low IC50 as higher potency.
